From patent US11104671B2, “Insecticidal compounds” (SYNGENTA PARTICIPATIONS AG, priority 2017, dated 2021)
Like-named read-outs stand apart in the source and are kept apart here.

How the values were obtained:
Format in all cases: in vivo
Diabrotica balteata = Diabrotica balteata (corn root worm), maize sprouts sprayed, L2 larvae; details: 96 h, read-out: effect in at least one of the two categories (mortality or growth inhibition); for percent effect (mortality or growth inhibition) at 200 ppm: application rate 200 ppm, 4 days after infestation, L2 larvae
Protocol: Diabrotica Balteata (Corn Root Worm)
Maize sprouts placed onto an agar layer in 24-well microtiter plates were treated with aqueous test solutions prepared from 10,000 ppm DMSO stock solutions by spraying. After drying, the plates were infested with L2 larvae (6 to 10 per well). The samples were assessed for mortality and growth inhibition in comparison to untreated samples 4 days after infestation.

Euschistus heros = Euschistus heros (neotropical brown stink bug), soybean leaves sprayed, N2 nymphs; details: 120 h, read-out: effect in at least one of the two categories (mortality or growth inhibition); for percent effect (mortality or growth inhibition) at 200 ppm: application rate 200 ppm, 5 days after infestation, N2 nymphs
Protocol: Euschistus heros (Neotropical Brown Stink Bug)
Soybean leaves on agar in 24-well microtiter plates were sprayed with aqueous test solutions prepared from 10,000 ppm DMSO stock solutions. After drying the leaves were infested with N2 nymphs. The samples were assessed for mortality and growth inhibition in comparison to untreated samples 5 days after infestation.

Thrips tabaci = Thrips tabaci (onion thrips), feeding/contact activity; details: foliar, 144 h
Protocol: Thrips tabaci (Onion thrips) Feeding/Contact Activity
(§1) Sunflower leaf discs were placed on agar in 24-well microtiter plates and sprayed with aqueous test solutions prepared from 10,000 ppm DMSO stock solutions. After drying the leaf discs were infested with a thrips population of mixed ages. The samples were assessed for mortality 6 days after infestation.

Tetranychus urticae = Tetranychus urticae (two-spotted spider mite), feeding/contact activity; details: foliar, 192 h, read-out: mortality on mixed population (mobile stages)
Protocol: Tetranychus urticae (Two-Spotted Spider Mite): Feeding/Contact Activity
as §1, with “Bean” for “Sunflower”, “discs” for “discs were placed”, “were” for “and”, “mite” for “thrips”, “on mixed population (mobile stages) 8” for “6”

Plutella xylostella = Plutella xylostella (diamond back moth), artificial diet, L2 larvae; details: 120 h, read-out: effect in at least one of the two categories (mortality or growth inhibition); for percent effect (mortality or growth inhibition) at 200 ppm: application rate 200 ppm, 5 days after infestation, L2 larvae
Protocol: Plutella xylostella (Diamond Back Moth)
24-well microtiter plates with artificial diet were treated with aqueous test solutions prepared from 10,000 ppm DMSO stock solutions by pipetting. After drying, the plates were infested with L2 larvae (10 to 15 per well). The samples were assessed for mortality and growth inhibition in comparison to untreated samples 5 days after infestation.

Spodoptera littoralis = Spodoptera littoralis (Egyptian cotton leaf worm), cotton leaf discs, L1 larvae; details: foliar, 72 h, read-out: control (mortality, anti-feedant effect or growth inhibition)
Protocol: Spodoptera littoralis (Egyptian Cotton Leaf Worm)
Cotton leaf discs were placed onto agar in 24-well microtiter plates and sprayed with aqueous test solutions prepared from 10,000 ppm DMSO stock solutions. After drying the leaf discs were infested with five L1 larvae. The samples were assessed for mortality, anti-feeding effect, and growth inhibition in comparison to untreated samples 3 days after infestation. Control of Spodoptera littoralis by a test sample is given when at least one of the categories mortality, anti-feedant effect, and growth inhibition is higher than the untreated sample.

Myzus persicae [1] = experiment: Myzus persicae (green peach aphid), intrinsic activity; details: 120 h
From the text: Myzus persicae (Green Peach Aphid). Intrinsic Activity
Test compounds prepared from 10,000 ppm DMSO stock solutions were applied by pipette into 24-well microtiter plates and mixed with sucrose solution. The plates were closed with a stretched Parafilm. A plastic stencil with 24 holes was placed onto the plate and infested pea seedlings were placed directly on the Parafilm. The infested plate was closed with a gel blotting paper and another plastic stencil and then turned upside down. The samples were assessed for mortality 5 days after infestation.

Myzus persicae [2] = experiment: Myzus persicae (green peach aphid), feeding/contact activity; details: foliar, 144 h
Protocol: Myzus persicae (Green Peach Aphid): Feeding/Contact Activity
Sunflower leaf discs were placed onto agar in a 24-well microtiter plate and sprayed with aqueous test solutions prepared from 10,000 ppm DMSO stock solutions. After drying, the leaf discs were infested with an aphid population of mixed ages. The samples were assessed for mortality 6 days after infestation.

[3] = application rate 200 ppm, 6 days after infestation, sunflower leaf discs, mixed ages, read-out: mortality
[4] = application rate 200 ppm, 8 days after infestation, bean leaf discs
[5] = application rate 200 ppm, 3 days after infestation, L1 larvae
[6] = test rate 12 ppm, 5 days after infestation, sucrose solution, infested pea seedlings, read-out: mortality

CS(=O)(=O)N1CC(NC(=O)c2ccc(C3=CSC(c4cc(Cl)c(Cl)c(Cl)c4)(C(F)(F)F)C3)cc2Cl)CO1 (stereo not shown) [Compound A1, 2-chloro-N-(2-methylsulfonylisoxazolidin-4-yl)-4-[2-(3,4,5-trichlorophenyl)-2-(trifluoromethyl)-3H-thiophen-4-yl]benzamide]
≥ 80%: percent effect (mortality or growth inhibition) at 200 ppm (Diabrotica balteata) | percent effect (mortality or growth inhibition) at 200 ppm (Euschistus heros) | mortality at 200 ppm (Thrips tabaci; [3]) | mortality at 200 ppm (Tetranychus urticae; [4]) | percent effect (mortality or growth inhibition) at 200 ppm (Plutella xylostella) | percent control (mortality, anti-feedant effect or growth inhibition) at 200 ppm (Spodoptera littoralis; [5]) | mortality at 12 ppm (Myzus persicae [1]; [6])

Cc1cc(C2=NS[C@@](c3cc(Cl)cc(Cl)c3)(C(F)(F)F)C2)ccc1C(=O)NC1CON(S(C)(=O)=O)C1 (stereo partly drawn) [Compound A2, 4-[(5S)-5-(3,5-dichlorophenyl)-5-(trifluoromethyl)-4H-isothiazol-3-yl]-2-methyl-N-(2-methylsulfonylisoxazolidin-4-yl)benzamide]
≥ 80%: mortality at 200 ppm (Myzus persicae [2]; [3]) | percent effect (mortality or growth inhibition) at 200 ppm (Diabrotica balteata) | percent effect (mortality or growth inhibition) at 200 ppm (Euschistus heros) | mortality at 200 ppm (Thrips tabaci; [3]) | mortality at 200 ppm (Tetranychus urticae; [4]) | percent effect (mortality or growth inhibition) at 200 ppm (Plutella xylostella) | percent control (mortality, anti-feedant effect or growth inhibition) at 200 ppm (Spodoptera littoralis; [5]) | mortality at 12 ppm (Myzus persicae [1]; [6])

Cc1cc(C2=COC(c3cc(Cl)cc(Cl)c3)(C(F)(F)F)C2)ccc1C(=O)NC1CON(S(C)(=O)=O)C1 (stereo not shown) [Compound A3, 4-[2-(3,5-dichlorophenyl)-2-(trifluoromethyl)-3H-furan-4-yl]-2-methyl-N-(2-methylsulfonylisoxazolidin-4-yl)benzamide]
≥ 80%: percent effect (mortality or growth inhibition) at 200 ppm (Diabrotica balteata) | percent effect (mortality or growth inhibition) at 200 ppm (Euschistus heros) | mortality at 200 ppm (Thrips tabaci; [3]) | mortality at 200 ppm (Tetranychus urticae; [4]) | percent effect (mortality or growth inhibition) at 200 ppm (Plutella xylostella) | percent control (mortality, anti-feedant effect or growth inhibition) at 200 ppm (Spodoptera littoralis; [5]) | mortality at 12 ppm (Myzus persicae [1]; [6])

Cc1cc(C2=NO[C@](c3cc(Cl)cc(Cl)c3)(C(F)(F)F)[C@H]2Cl)ccc1C(=O)NC1CON(S(C)(=O)=O)C1 (stereo partly drawn) [Compound A4, 4-[(4S,5R)-4-chloro-5-(3,5-dichlorophenyl)-5-(trifluoromethyl)-4H-isoxazol-3-yl]-2-methyl-N-(2-methylsulfonylisoxazolidin-4-yl)benzamide]
≥ 80%: mortality at 200 ppm (Myzus persicae [2]) | percent control (mortality or growth inhibition) at 200 ppm (Diabrotica balteata) | percent control (mortality or growth inhibition) at 200 ppm (Euschistus heros) | mortality at 200 ppm (Thrips tabaci) | mortality at 200 ppm (Tetranychus urticae) | percent control (mortality or growth inhibition) at 200 ppm (Plutella xylostella) | percent control (mortality, anti-feedant effect or growth inhibition) at 200 ppm (Spodoptera littoralis) | mortality at 12 ppm (Myzus persicae [1])

Cc1cc(C2=NCC(c3cc(Cl)c(F)c(Cl)c3)(C(F)(F)F)C2)ccc1C(=O)N[C@H]1CON(S(=O)(=O)N(C)C)C1 (stereo partly drawn) [Compound A10, 4-[3-(3,5-dichloro-4-fluoro-phenyl)-3-(trifluoromethyl)-2,4-dihydropyrrol-5-yl]-N-[(4R)-2-(dimethylsulfamoyl)isoxazolidin-4-yl]-2-methyl-benzamide]
≥ 80%: mortality at 200 ppm (Myzus persicae [2]; [3]) | percent effect (mortality or growth inhibition) at 200 ppm (Diabrotica balteata) | percent effect (mortality or growth inhibition) at 200 ppm (Euschistus heros) | mortality at 200 ppm (Thrips tabaci; [3]) | mortality at 200 ppm (Tetranychus urticae; [4]) | percent effect (mortality or growth inhibition) at 200 ppm (Plutella xylostella) | percent control (mortality, anti-feedant effect or growth inhibition) at 200 ppm (Spodoptera littoralis; [5])

Cc1cc(C2=COC(c3cc(Cl)cc(Cl)c3)(C(F)(F)F)C2)ccc1C(=O)N[C@H]1CON(S(=O)(=O)N(C)C)C1 (stereo partly drawn) [Compound A12, 4-[2-(3,5-dichlorophenyl)-2-(trifluoromethyl)-3H-furan-4-yl]-N-[(4R)-2-(dimethylsulfamoyl)isoxazolidin-4-yl]-2-methyl-benzamide]
≥ 80%: mortality at 200 ppm (Myzus persicae [2]; [3]) | percent effect (mortality or growth inhibition) at 200 ppm (Diabrotica balteata) | percent effect (mortality or growth inhibition) at 200 ppm (Euschistus heros) | mortality at 200 ppm (Thrips tabaci; [3]) | mortality at 200 ppm (Tetranychus urticae; [4]) | percent effect (mortality or growth inhibition) at 200 ppm (Plutella xylostella) | percent control (mortality, anti-feedant effect or growth inhibition) at 200 ppm (Spodoptera littoralis; [5])

Cc1cc(C2=NS[C@@](c3cc(Cl)cc(Cl)c3)(C(F)(F)F)C2)ccc1C(=O)N[C@H]1CON(S(=O)(=O)N(C)C)C1 [Compound A13, 4-[(5S)-5-(3,5-dichlorophenyl)-5-(trifluoromethyl)-4H-isothiazol-3-yl]-N-[(4R)-2-(dimethylsulfamoyl)isoxazolidin-4-yl]-2-methyl-benzamide]
≥ 80%: mortality at 200 ppm (Myzus persicae [2]; [3]) | percent effect (mortality or growth inhibition) at 200 ppm (Diabrotica balteata) | percent effect (mortality or growth inhibition) at 200 ppm (Euschistus heros) | mortality at 200 ppm (Thrips tabaci; [3]) | mortality at 200 ppm (Tetranychus urticae; [4]) | percent effect (mortality or growth inhibition) at 200 ppm (Plutella xylostella) | percent control (mortality, anti-feedant effect or growth inhibition) at 200 ppm (Spodoptera littoralis; [5])

Cc1cc(C2=NCC(c3cc(Cl)cc(Cl)c3)(C(F)(F)F)C2)ccc1C(=O)N[C@H]1CON(S(=O)(=O)N(C)C)C1 (stereo partly drawn) [Compound A14, 4-[3-(3,5-dichlorophenyl)-3-(trifluoromethyl)-2,4-dihydropyrrol-5-yl]-N-[(4R)-2-(dimethylsulfamoyl)isoxazolidin-4-yl]-2-methyl-benzamide]
≥ 80%: mortality at 200 ppm (Myzus persicae [2]; [3]) | percent effect (mortality or growth inhibition) at 200 ppm (Diabrotica balteata) | percent effect (mortality or growth inhibition) at 200 ppm (Euschistus heros) | mortality at 200 ppm (Thrips tabaci; [3]) | mortality at 200 ppm (Tetranychus urticae; [4]) | percent effect (mortality or growth inhibition) at 200 ppm (Plutella xylostella) | percent control (mortality, anti-feedant effect or growth inhibition) at 200 ppm (Spodoptera littoralis; [5])

Cc1cc(N2CCC(c3cc(Cl)cc(Cl)c3)(C(F)(F)F)C2)ncc1C(=O)N[C@H]1CON(S(=O)(=O)N(C)C)C1 (stereo partly drawn) [Compound A15, 6-[3-(3,5-dichlorophenyl)-3-(trifluoromethyl)pyrrolidin-1-yl]-N-[(4R)-2-(dimethylsulfamoyl)isoxazolidin-4-yl]-4-methyl-pyridine-3-carboxamide]
≥ 80%: percent effect (mortality or growth inhibition) at 200 ppm (Diabrotica balteata) | percent effect (mortality or growth inhibition) at 200 ppm (Euschistus heros) | mortality at 200 ppm (Tetranychus urticae; [4]) | percent effect (mortality or growth inhibition) at 200 ppm (Plutella xylostella) | percent control (mortality, anti-feedant effect or growth inhibition) at 200 ppm (Spodoptera littoralis; [5])

Cc1nc(N2CCC(c3cc(Cl)cc(Cl)c3)(C(F)(F)F)C2)ccc1C(=O)N[C@H]1CON(S(=O)(=O)N(C)C)C1 (stereo partly drawn) [Compound A16, 6-[3-(3,5-dichlorophenyl)-3-(trifluoromethyl)pyrrolidin-1-yl]-N-[(4R)-2-(dimethylsulfamoyl)isoxazolidin-4-yl]-2-methyl-pyridine-3-carboxamide]
≥ 80%: mortality at 200 ppm (Myzus persicae [2]; [3]) | percent effect (mortality or growth inhibition) at 200 ppm (Diabrotica balteata) | percent effect (mortality or growth inhibition) at 200 ppm (Euschistus heros) | mortality at 200 ppm (Thrips tabaci; [3]) | mortality at 200 ppm (Tetranychus urticae; [4]) | percent effect (mortality or growth inhibition) at 200 ppm (Plutella xylostella) | percent control (mortality, anti-feedant effect or growth inhibition) at 200 ppm (Spodoptera littoralis; [5])

Cc1nc(C2=CC(c3cc(Cl)cc(Cl)c3)(C(F)(F)F)OC2)ccc1C(=O)N[C@H]1CON(S(=O)(=O)N(C)C)C1 (stereo partly drawn) [Compound A17, 6-[5-(3,5-dichlorophenyl)-5-(trifluoromethyl)-2H-furan-3-yl]-N-[(4R)-2-(dimethylsulfamoyl)isoxazolidin-4-yl]-2-methyl-pyridine-3-carboxamide]
≥ 80%: percent effect (mortality or growth inhibition) at 200 ppm (Diabrotica balteata) | percent effect (mortality or growth inhibition) at 200 ppm (Euschistus heros) | mortality at 200 ppm (Thrips tabaci; [3]) | mortality at 200 ppm (Tetranychus urticae; [4]) | percent effect (mortality or growth inhibition) at 200 ppm (Plutella xylostella) | percent control (mortality, anti-feedant effect or growth inhibition) at 200 ppm (Spodoptera littoralis; [5])
